Laboratory results as given in patent US20160000066A1, “Furfural derivatives as a vehicle” (priority 2013, published 2016).

Tests used:
Assay type in all cases: physicochemical
[1] = Solubilization of resins in the test solvent: Palatal A400-01; conditions: Palatal A400-01 in the compound as solvent
Description: (§1) The following table lists the solubilities obtained for four resins tested: BADGE DER 331 epoxy resin sold by DOW CHEMICAL, Palatal A400-01 polyester resin sold by DSM, Novolac DEN 425 epoxy resin sold by DOW CHEMICAL and TGPA resin available from Sigma Aldrich.
(§2) A single solubility test was carried out per solvent/resin pair, at a working concentration of 100 g/l, at ambient temperature. The tests were carried out on the milliliter scale (i.e., 0.5 g/5 ml). The tests are carried out in transparent glass flasks. The resin (0.5 g) is weighed into the flask and then the required volume (5 ml) of test solvent is introduced into this same flask. Stirring is carried out using a vortex mixer for 1 to 5 minutes. The results for solubility of the resins in the solvents tested, shown in the table below, are obtained by visual observations.

[2] = Solubilization of resins in the test solvent: BADGE DER 331; conditions: BADGE DER 331 in the compound as solvent
Description: as §1, §2

[3] = Solubilization of resins in the test solvent: Novolac DEN 425; conditions: Novolac DEN 425 in the compound as solvent
Description: as §1, §2

[4] = Solubilization of resins in the test solvent: TGPA; conditions: TGPA in the compound as solvent, visual
Description: as §1, §2

[5] = adjusted protocol: solvent heated on a water bath at 30° C. before the test

SMILES: CC(=O)/C=C/c1ccco1 [(1)]
- Solubility at ambient temperature (100 g/l) [1, 5]: Soluble*
- Solubility at ambient temperature (100 g/l) [2, 5]: Soluble*
- Solubility at ambient temperature (100 g/l) [3, 5]: Soluble*

SMILES: CC(C)C(=O)/C=C/c1ccco1 [(3)]
- Solubility at ambient temperature (100 g/l) ([1]; ambient temperature, visual): Soluble
- Solubility at ambient temperature (100 g/l) [4]: Soluble
- Solubility at ambient temperature (100 g/l) ([2]; ambient temperature, visual): Soluble
- Solubility at ambient temperature (100 g/l) ([3]; ambient temperature, visual): Soluble

SMILES: CCCOC(=O)c1ccco1 [(6)]
- Solubility at ambient temperature (100 g/l) ([1]; ambient temperature, visual): Soluble
- Solubility at ambient temperature (100 g/l) ([2]; ambient temperature, visual): Partial
- Solubility at ambient temperature (100 g/l) ([3]; ambient temperature, visual): Soluble

SMILES: COC(=O)c1ccco1 [(8)]
- Solubility at ambient temperature (100 g/l) ([1]; ambient temperature, visual): Soluble
- Solubility at ambient temperature (100 g/l) [4]: Soluble
- Solubility at ambient temperature (100 g/l) ([2]; ambient temperature, visual): Soluble
- Solubility at ambient temperature (100 g/l) ([3]; ambient temperature, visual): Soluble

SMILES: CCCCCOC(=O)c1ccco1 [(9)]
- Solubility at ambient temperature (100 g/l) ([1]; ambient temperature, visual): Soluble
- Solubility at ambient temperature (100 g/l) [4]: Soluble
- Solubility at ambient temperature (100 g/l) ([2]; ambient temperature, visual): Soluble
- Solubility at ambient temperature (100 g/l) ([3]; ambient temperature, visual): Soluble

SMILES: O=C(OCCc1ccccc1)c1ccco1 [(10)]
- Solubility at ambient temperature (100 g/l) ([1]; ambient temperature, visual): Soluble
- Solubility at ambient temperature (100 g/l) [4]: Soluble
- Solubility at ambient temperature (100 g/l) ([2]; ambient temperature, visual): Soluble
- Solubility at ambient temperature (100 g/l) ([3]; ambient temperature, visual): Soluble

SMILES: CCCCN=Cc1ccco1 [(15)]
- Solubility at ambient temperature (100 g/l) ([1]; ambient temperature, visual): Soluble
- Solubility at ambient temperature (100 g/l) [4]: Soluble
- Solubility at ambient temperature (100 g/l) ([2]; ambient temperature, visual): Partial
- Solubility at ambient temperature (100 g/l) ([3]; ambient temperature, visual): Soluble

SMILES: CCCCCCCCN=Cc1ccco1 [(16)]
- Solubility at ambient temperature (100 g/l) ([1]; ambient temperature, visual): Soluble
- Solubility at ambient temperature (100 g/l) [4]: Soluble
- Solubility at ambient temperature (100 g/l) ([2]; ambient temperature, visual): Partial
- Solubility at ambient temperature (100 g/l) ([3]; ambient temperature, visual): Soluble

SMILES: Cc1ccc(C=O)o1 [(17)]
- Solubility at ambient temperature (100 g/l) ([1]; ambient temperature, visual): Soluble
- Solubility at ambient temperature (100 g/l) [4]: Soluble
- Solubility at ambient temperature (100 g/l) ([2]; ambient temperature, visual): Soluble
- Solubility at ambient temperature (100 g/l) ([3]; ambient temperature, visual): Soluble
